In PubChem BioAssay (NCI):
“And” between values parts separate entries of the source, which are not always exact repeats. Equal values may be shown once.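 How tested: cells in 96-well plates exposed to compound for 48 hours at five concentrations. Here, GI50 denotes the concentration required for 50% inhibition of growth. TGI: concentration producing complete growth inhibition.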

Key:
Experiment in all cases: inhibition of tumour cell growth, NCI panel, 48 h
A549 NSCLC = system: A549 NSCLC
COLO 205 colon = system: COLO 205 colon
HOP-62 NSCLC = system: HOP-62 NSCLC
KM12 colon = system: KM12 colon
MCF7 breast = system: MCF7 breast
MOLT-4 leukemia = system: MOLT-4 leukemia
NCI/ADR-RES ovarian = system: NCI/ADR-RES ovarian
PC-3 prostate = system: PC-3 prostate
SR leukemia = system: SR leukemia
UO-31 renal = system: UO-31 renal

## CCc1nc(N)nc(N)c1-c1ccc(Cl)c(N=[N+]=[N-])c1
A549 NSCLC
  GI50: 0.58 µM and 1.68 µM
  TGI: > 100 µM
COLO 205 colon
  TGI: 23.3 µM and 26.1 µM
HOP-62 NSCLC
  TGI: > 59.8 µM and 62.8 µM
KM12 colon
  TGI: 73.1 µM and > 100 µM
MCF7 breast
  TGI: > 76.1 µM and 56.7 µM
MOLT-4 leukemia
  GI50: 2.82 µM and 6.62 µM
  TGI: 26.8 µM and 71.1 µM
NCI/ADR-RES ovarian
  TGI: 63.9 µM and 99.4 µM
PC-3 prostate
  GI50: 12.6 µM and 2.06 µM
  TGI: > 100 µM
SR leukemia
  GI50: 1.3 µM and 2.68 µM
  TGI: 19.2 µM and 43.9 µM
UO-31 renal
  GI50: 5.8 µM and 14.6 µM
  TGI: 88 µM and > 100 µM

## COc1cnc2c(c1)C(=O)c1c-2n(CCCN2CCC(O)CC2)c(=O)c2cc(Cl)ccc12
A549 NSCLC
  GI50: 0.48 µM
  TGI: 2.34 µM
COLO 205 colon
  GI50: 0.661 µM
  TGI: 2.64 µM
HOP-62 NSCLC
  GI50: 0.0942 µM
  TGI: 17.1 µM
KM12 colon
  GI50: 1.43 µM
  TGI: 3.64 µM
MCF7 breast
  GI50: 0.0422 µM
  TGI: 1.54 µM
MOLT-4 leukemia
  GI50: 0.0745 µM
  TGI: 5.34 µM
NCI/ADR-RES ovarian
  GI50: 0.167 µM
  TGI: 2.31 µM
PC-3 prostate
  GI50: 1.46 µM
  TGI: 3.56 µM
SR leukemia
  GI50: 0.0888 µM
  TGI: 13.2 µM
UO-31 renal
  GI50: 0.271 µM
  TGI: 1.59 µM

## COc1ccc(NCC(=O)Nn2c(-c3ccccc3)nc3ccccc3c2=O)cc1
A549 NSCLC
  TGI: > 100 µM
COLO 205 colon
  TGI: > 100 µM
HOP-62 NSCLC
  TGI: > 100 µM
KM12 colon
  TGI: > 100 µM
MCF7 breast
  TGI: 41.2 µM
MOLT-4 leukemia
  TGI: > 100 µM
NCI/ADR-RES ovarian
  TGI: 59.1 µM
PC-3 prostate
  TGI: > 100 µM
SR leukemia
  TGI: > 100 µM
UO-31 renal
  TGI: > 100 µM

## CC(C)(C)OC(=O)NCc1cccc(N=C=S)c1
A549 NSCLC
  GI50: 28 µM
  TGI: 72.1 µM
COLO 205 colon
  GI50: 15.7 µM
  TGI: 33.9 µM
HOP-62 NSCLC
  GI50: 21.8 µM
  TGI: 55.8 µM
KM12 colon
  GI50: 16.5 µM
  TGI: 32.8 µM
MCF7 breast
  GI50: 16.6 µM
  TGI: 42.4 µM
MOLT-4 leukemia
  GI50: 19.7 µM
  TGI: 53.6 µM
NCI/ADR-RES ovarian
  GI50: 26.2 µM
  TGI: 79.4 µM
PC-3 prostate
  GI50: 21.5 µM
  TGI: 51.8 µM
SR leukemia
  GI50: 20 µM
  TGI: > 81.9 µM
UO-31 renal
  GI50: 15.4 µM
  TGI: 38.8 µM

## c1ccc2c(c1)cc1n2CCc2c-1[nH]c1ccccc21
A549 NSCLC
  TGI: > 10 µM
COLO 205 colon
  TGI: > 10 µM
HOP-62 NSCLC
  TGI: > 10 µM
KM12 colon
  TGI: > 10 µM
MCF7 breast
  TGI: > 10 µM
MOLT-4 leukemia
  TGI: > 10 µM
NCI/ADR-RES ovarian
  TGI: > 10 µM
PC-3 prostate
  TGI: > 10 µM
SR leukemia
  TGI: > 10 µM
UO-31 renal
  TGI: > 10 µM

## COc1cc(Cl)cc(-c2nn(-c3cccc(NC(=O)Nc4ccc(Cl)c(Cl)c4)c3)cc2-c2ccncc2)c1
A549 NSCLC
  GI50: 1.48 µM
  TGI: 15.3 µM
COLO 205 colon
  GI50: 1.71 µM
  TGI: 3.31 µM
HOP-62 NSCLC
  GI50: 3.38 µM
  TGI: 35.1 µM
KM12 colon
  GI50: 2.02 µM
  TGI: 10.8 µM
MCF7 breast
  GI50: 2.56 µM
  TGI: 13.2 µM
MOLT-4 leukemia
  GI50: 1.69 µM
  TGI: 6.13 µM
NCI/ADR-RES ovarian
  GI50: 2.34 µM
  TGI: 24.9 µM
PC-3 prostate
  GI50: 1.13 µM
  TGI: 5.28 µM
SR leukemia
  GI50: 1.54 µM
  TGI: 5.8 µM
UO-31 renal
  GI50: 1.89 µM
  TGI: 18.2 µM

## CCSC[C@@H]1C[C@](O)(c2ccc(F)cc2)[C@@H](c2ccc(F)cc2)O1
A549 NSCLC
  GI50: 18.7 µM
  TGI: 44 µM
COLO 205 colon
  GI50: 16.5 µM
  TGI: 31.6 µM
HOP-62 NSCLC
  GI50: 18.2 µM
  TGI: 33.4 µM
KM12 colon
  GI50: 19.4 µM
  TGI: 41.3 µM
MCF7 breast
  GI50: 17.1 µM
  TGI: 34.8 µM
MOLT-4 leukemia
  GI50: 3.21 µM
  TGI: 11.1 µM
NCI/ADR-RES ovarian
  GI50: 21.3 µM
  TGI: 51 µM
PC-3 prostate
  GI50: 15.8 µM
  TGI: 30 µM
SR leukemia
  GI50: 12.9 µM
  TGI: 30 µM
UO-31 renal
  GI50: 17 µM
  TGI: 32.9 µM

## COC(=O)[C@H](Cc1cn(C)cn1)NC(=O)[C@H](C)NC(=O)Nc1cc(C(F)(F)F)cc(C(F)(F)F)c1
A549 NSCLC
  GI50: > 10 µM
  TGI: > 10 µM
COLO 205 colon
  GI50: > 10 µM
  TGI: > 10 µM
HOP-62 NSCLC
  GI50: > 10 µM
  TGI: > 10 µM
KM12 colon
  GI50: > 10 µM
  TGI: > 10 µM
MCF7 breast
  GI50: > 10 µM
  TGI: > 10 µM
MOLT-4 leukemia
  GI50: > 10 µM
  TGI: > 10 µM
NCI/ADR-RES ovarian
  GI50: > 10 µM
  TGI: > 10 µM
PC-3 prostate
  GI50: > 10 µM
  TGI: > 10 µM
SR leukemia
  GI50: > 10 µM
  TGI: > 10 µM
UO-31 renal
  GI50: > 10 µM
  TGI: > 10 µM

## Cn1cc(C2=C(Nc3ccccc3)C(=O)NC2=O)c2ccccc21
A549 NSCLC
  GI50: > 25 µM
  TGI: > 25 µM
COLO 205 colon
  GI50: > 25 µM
  TGI: > 25 µM
HOP-62 NSCLC
  GI50: > 25 µM
  TGI: > 25 µM
KM12 colon
  GI50: 17 µM
  TGI: > 25 µM
MCF7 breast
  GI50: > 25 µM
  TGI: > 25 µM
MOLT-4 leukemia
  GI50: > 23.1 µM
  TGI: > 25 µM
NCI/ADR-RES ovarian
  GI50: > 25 µM
  TGI: > 25 µM
PC-3 prostate
  GI50: > 25 µM
  TGI: > 25 µM
SR leukemia
  GI50: > 25 µM
  TGI: > 25 µM
UO-31 renal
  GI50: > 19.5 µM
  TGI: > 25 µM

## Cc1nc2ccccc2nc1N=Nc1ccccc1
A549 NSCLC
  GI50: 37.3 µM
  TGI: > 100 µM
COLO 205 colon
  GI50: 0.291 µM
  TGI: 1.91 µM
HOP-62 NSCLC
  GI50: 28.5 µM
  TGI: > 100 µM
KM12 colon
  GI50: 11.9 µM
  TGI: 93.5 µM
MCF7 breast
  GI50: 5.75 µM
  TGI: > 100 µM
MOLT-4 leukemia
  GI50: 14.9 µM
  TGI: 43.2 µM
NCI/ADR-RES ovarian
  GI50: 16 µM
  TGI: 57.6 µM
PC-3 prostate
  GI50: 6.57 µM
  TGI: 60.2 µM
SR leukemia
  GI50: 19 µM
  TGI: > 100 µM
UO-31 renal
  GI50: 7.99 µM
  TGI: > 100 µM

## COc1cc2c(c(OC)c1OC)-c1ccc(N=NC(N)=S)c(=O)cc1[C@@H](NC(C)=O)CC2
A549 NSCLC
  GI50: 3.63 µM
  TGI: > 100 µM
COLO 205 colon
  GI50: 0.26 µM
  TGI: 0.682 µM
HOP-62 NSCLC
  GI50: 1.8 µM
  TGI: > 100 µM
KM12 colon
  GI50: 0.394 µM
MCF7 breast
  GI50: 0.364 µM
  TGI: > 100 µM
MOLT-4 leukemia
  GI50: 1.3 µM
  TGI: > 100 µM
NCI/ADR-RES ovarian
  GI50: 17.5 µM
  TGI: 49.1 µM
PC-3 prostate
  GI50: 0.617 µM
  TGI: > 100 µM
SR leukemia
  GI50: 0.408 µM
  TGI: > 100 µM
UO-31 renal
  GI50: 6.92 µM
  TGI: > 100 µM

## Cc1ccc(-n2nnnc2-c2cnc(N3CCOCC3)nc2-c2cccc(C(F)(F)F)c2)cc1
A549 NSCLC
  GI50: 2.26 µM
  TGI: > 50 µM
COLO 205 colon
  GI50: 1.81 µM
  TGI: > 13.5 µM
HOP-62 NSCLC
  GI50: 1.44 µM
  TGI: 4.9 µM
KM12 colon
  GI50: 1.26 µM
  TGI: 3.59 µM
MCF7 breast
  GI50: 1.32 µM
  TGI: > 32.8 µM
MOLT-4 leukemia
  GI50: 2.18 µM
  TGI: > 10.4 µM
NCI/ADR-RES ovarian
  GI50: 0.825 µM
  TGI: 2.36 µM
PC-3 prostate
  GI50: 1.44 µM
  TGI: 3.93 µM
SR leukemia
  GI50: 1.13 µM
  TGI: 3.17 µM
UO-31 renal
  GI50: 1.14 µM

## C[C@@H](CO)NC(=O)c1cc(-c2ccc(Cl)cc2)nn(-c2cnn(C)c2)c1=O
A549 NSCLC
  GI50: 20.3 µM
  TGI: 67.7 µM
COLO 205 colon
  GI50: 24.7 µM
  TGI: 90.6 µM
HOP-62 NSCLC
  GI50: 41.8 µM
  TGI: > 100 µM
KM12 colon
  GI50: 59.9 µM
  TGI: > 100 µM
MCF7 breast
  GI50: 25.7 µM
  TGI: > 100 µM
MOLT-4 leukemia
  GI50: 15.9 µM
  TGI: 91.5 µM
NCI/ADR-RES ovarian
  GI50: 16.7 µM
  TGI: 71.9 µM
PC-3 prostate
  GI50: 27.8 µM
  TGI: > 100 µM
SR leukemia
  GI50: 18.2 µM
  TGI: > 100 µM
UO-31 renal
  GI50: 7.79 µM
  TGI: 57.4 µM
